For this test, the target named is cofactor-independent phosphoglycerate mutase (iPGM), Brugia malayi / Caenorhabditis elegans. Description: nematode iPGM enzyme inhibitors, biochemical, cofactor-independent, HTS (AID 743230). The note with it: recombinant nematode iPGM, coupled NADH absorbance decline.

What is called IC50 is the point on the concentration scale where inhibition reaches its midpoint.

Regarding `Nc1cc2cccnc2c2ncccc12`, the IC50 was 38.3 µM.
For the compound `CCc1cc2c[n+](C3CCCCC3)sc2s1`, the IC50 is 10.4 µM.

For the origin of these results see PubChem BioAssay AID743230.
